Tests used:
[1] = for viscosity / speed of sound / mass density: 101.33 kPa, Liquid; for viscosity: Capillary tube (Ostwald / Ubbelohde) method; for speed of sound: Pulse-echo method; for mass density: Vibrating tube method; for Normal melting temperature: Crystal, DTA
[2] = refractive index (Na D-line) (dimensionless); details: 101.33 kPa, Liquid, Standard Abbe refractometry

CCCC[N+]1(CC)CCCC1.CCOS(=O)(=O)[O-] [1-butyl-1-ethylpyrrolidinium ethyl sulfate]
Details	mass density, [1] [kg/m3]	refractive index, [2]	speed of sound, [1] [m/s]	viscosity, [1] [mPa·s]
328.15 K	1118.72	1.4671	1602	105.5
333.15 K	1115.98	1.46581	1589.6	82.9
338.15 K	1113.02	1.46454	1577.2	66.8
343.15 K	1110.08	1.46315	1564.9	55.8

Details	Normal melting temperature [°C]
[1]	53

CC[N+](C)(CC)CC.COS(=O)(=O)[O-] [N,N-diethyl-N-methylethanaminium methyl sulfate]
Details	mass density, [1] [kg/m3]	refractive index, [2]	speed of sound, [1] [m/s]	viscosity, [1] [mPa·s]
308.15 K	1166.44	1.46191	1853.5	218.5
313.15 K	1163.4	1.46065	1839.7	165.6
318.15 K	1160.36	1.45939	1826.3	127.7
323.15 K	1157.34	1.45812	1813.1	100.3
328.15 K	1154.32	1.45687	1800	79.7
333.15 K	1151.33	1.45561	1787.1	64
338.15 K	1148.34	1.45402	1774.2	53.42
343.15 K	1145.36	1.45283	1761.5	44.92

Details	Normal melting temperature [°C]
[1]	33

CCCC[N+]1(C)CCCC1.COS(=O)(=O)[O-] [1-butyl-1-methylpyrrolidinium methyl sulfate]
Details	mass density, [1] [kg/m3]	refractive index, [2]	speed of sound, [1] [m/s]	viscosity, [1] [mPa·s]
298.15 K	1166.69	1.47308	1741.6	467.5
303.15 K	1163.58	1.47184	1727.3	334.9
308.15 K	1160.46	1.47054	1713.6	245.6
313.15 K	1157.4	1.46924	1700.3	184.1
318.15 K	1154.4	1.46792	1687.4	139.2
323.15 K	1151.42	1.46661	1674.7	107.8
328.15 K	1148.42	1.46536	1662.2	86.1
333.15 K	1145.42	1.46406	1649.8	69.2
338.15 K	1142.44	1.46274	1637.6	56.4
343.15 K	1139.47	1.46143	1625.5	46.6

CCOS(=O)(=O)[O-].CC[N+]1(C)CCCC1 [1-ethyl-1-methylpyrrolidinium ethyl sulfate]
Details	mass density, [1] [kg/m3]	refractive index, [2]	speed of sound, [1] [m/s]	viscosity, [1] [mPa·s]
308.15 K	1189.67	1.47021	1750.2	172
313.15 K	1186.53	1.46891	1737.5	134.9
318.15 K	1183.41	1.4676	1725.2	107.5
323.15 K	1180.3	1.46632	1713	86.8
328.15 K	1177.22	1.46506	1701	71.2
333.15 K	1174.15	1.46378	1689.2	59.1
338.15 K	1171.11	1.46246	1677.3	49.5
343.15 K	1168.07	1.46116	1665.7	42

Details	Normal melting temperature [°C]
[1]	33
